Test results: patent US4041064A, “16-Methyl prost-5-en-13-ynoic acid derivatives” (Carlo-Erba S.p.A., priority 1974, dated 1977)
Where two headings read alike, the source gives them in different places.

Assays:
stomach of rats = assay: Activity in vitro in the stomach of rats; conditions: rat stomach
uterus of rats = assay: Rat uterus test in vitro (oestrogenized rat uteri)
Description: The rat uterus test consisted of a 10 ml thermostatic bath held at 29° C., in which oestrogenized rat uteri under 0.5 g traction were carboxygenated in a Dejalon saline solution. The preparation was left to stabilize for 30 minutes before the compounds and the standard were tested. Response was measured using a isotonic frontal lever, long enough to amplify the response 4.5 times.

ileum of guinea-pigs = assay: Guinea pig ileum test in vitro
Description: The guinea pig ileum test consisted of a 10 ml thermostatic bath held at 35° C., containing the ileum of a male guinea pig, under 0.5 g traction, carboxygenated in a Tyrode solution; this was left for 30 minutes to stabilize before the compounds were tested. The response was recorded using a isotonic frontal lever, long enough to amplify the response 4.5 times.

gastric secretion = assay: Antisecretory activity in rats (Shay method); format: in vivo, rat; conditions: subcutaneously; for ED50: Rattus norvegicus, sc, read-out: ED50 (Fiducial Limits For P = 0.05); for Potency Ratio (Fiducial Limits For P=0.05): PGE2 = 1 (conventional value)
Text: (§1) Moreover, the compounds of the present invention are endowed with an excellent anti-ulcer activity as well as with a strong gastric anti-secretory effect, as shown by the following Tables: where the conventional value of 1 is given to the anti-ulcer and anti-secretory activity of PGE2, and where the compounds of the invention are compared also with 13,14-dehydro-PGE2, 16S-methyl-PGE2 and 16(S,R)-methyl-13,14-dehydro-PGE2.
ANTISECRETORY ACTIVITY IN RATS (*)
(*) The antisecretory activity was studied according to H. Shay et al.,

[1] = test system: stress-induced gastric ulcers; assay: Inhibition of stress-induced gastric ulcers in rats (Takagi-Okabe method); format: in vivo, rat; conditions: anti-ulcer; for ED50: Rattus norvegicus, read-out: ED50 (Fiducial Limits For P=0.05); for Potency Ratio (Fiducial Limits For P=0.05): PGE2 = 1 (conventional value)
Text: as §1
INHIBITION OF STRESS-INDUCED GASTRIC ULCERS IN RATS (*)
(*) The ulcers are induced according to the method of Takagi-Okabe (K.
Takagi et al., Jap. J. Pharmacol., 18, 9 (1968)

[2] = test system: bronchospasm in guinea-pigs; assay: Anti-bronchospastic (anti-asthmatic) activity in guinea-pigs (histamine- and anaphylactic shock-induced bronchospasm); design: species or system guinea pig; conditions: in vivo and in vitro in guinea-pigs; for anti-bronchospastic activity: compared with natural PGE2; for anti-bronchospastic activity relative to natural PGE2: histamine- and anaphylactic shock-induced
Description: Four hours later, the same animals were treated with a spray of the test compounds at different solutions in saline, and with a spray of standard PGE2 solution. They were then given another histamine spray (0.2%) and again, the times taken for bronchospasm to appear were noted.

SMILES | activity in vitro in the stomach of rats (stomach of rats) | spasmogenic activity (uterus of rats) | activity in vitro in the ileum of guinea-pigs (ileum of guinea-pigs) | ED50 (gastric secretion) [mg/kg] | Potency Ratio (Fiducial Limits For P=0.05) (gastric secretion) | ED50 ([1]; po, os) [mg/kg] | ED50 ([1]; sc, subcutaneously) [mg/kg] | Potency Ratio (Fiducial Limits For P=0.05) ([1]; os) | Potency Ratio (Fiducial Limits For P=0.05) ([1]; subcutaneously) | anti-bronchospastic activity [2] | anti-bronchospastic activity relative to natural PGE2 [2]
CCCC[C@H](C)[C@H](O)C#C[C@@H]1[C@H](O)CC(=O)[C@H]1C/C=C\CCCC(=O)O (single isomer, unassigned) [16s-methyl-5c-9-oxo-11α,15S-trihydroxy-8,12-diiso-prost-5-en-13-ynoicacid] | practically devoid of any activity | excellent spasmogenic activity | practically devoid of any activity | – | – | – | – | – | – | – | –
CCCCC[C@H](O)C#C[C@H]1[C@H](O)CC(=O)[C@@H]1C/C=C\CCCC(=O)O [13,14-dehydro-PGE2, reference compound] | – | – | – | 0.055 | 2.6 (1.4-4.5) | 0.063 | 0.043 | 9.3(4.5-19.0) | 4.9(2.4-9.6) | – | –
CCCCC(C)[C@H](O)C#C[C@H]1[C@H](O)CC(=O)[C@@H]1C/C=C\CCCC(=O)O (stereo partly drawn) [16(S,R)-methyl-13,14-dehydro-PGE2, reference compound] | – | – | – | 0.0068 | 28.2 (18.1-41.6) | 0.0202 | 0.00341 | 39.8(17.1-102.1) | 30.8(20.4-44.2) | – | –
CCCC[C@@H](C)[C@@H](O)C#C[C@H]1[C@H](O)CC(=O)[C@@H]1C/C=C\CCCC(=O)O [16R-methyl-13,14-dehydro-15-epi-PGE2, 16r-methyl-5c-9-oxo-11α,15R-dihydroxy-prost-5-en-13-ynoic acid] | – | – | – | 0.0328 | 3.8 (2.7-5.5) | 0.141 | 0.0087 | 7.3(3.1-16.9) | 7.4(4.8-11.1) | – | –
CCCC[C@@H](C)[C@H](O)C#C[C@H]1[C@H](O)CC(=O)[C@@H]1C/C=C\CCCC(=O)O [16R-methyl-13,14-dehydro-PGE2, 16r-methyl-5c-9-oxo-11α,15S-dihydroxy-prost-5-en-13-ynoic acid] | – | – | – | 0.0026 | 48.3 (33.5-71.6) | 0.0098 | 0.0015 | 105.6(46.6-282.6) | 43.1(28.4-64.6) | very good anti-bronchospastic activity | four to six
CCCC[C@H](C)[C@@H](O)C#C[C@H]1[C@H](O)CC(=O)[C@@H]1C/C=C\CCCC(=O)O [16S-methyl-13,14-dehydro-15-epi-PGE2, 16s-methyl-5c-9-oxo-11α,15R-dihydroxy-prost-5-en-13-ynoic acid] | – | – | – | – | – | 0.22 | 0.0911 | 3.8(1.75-8.4) | 2.9(1.9-4.5) | – | –
CCCC[C@H](C)[C@H](O)C#C[C@H]1[C@H](O)CC(=O)[C@@H]1C/C=C\CCCC(=O)O [16S-methyl-13,14-dehydro-PGE2, 16S-methyl-5c-9-oxo-11α,15S-dihydroxy-prost-5-en-13-ynoic acid] | – | – | – | 0.0042 | 35.7 (20.8-68.9) | 0.015 | 0.0009 | 42.8(18.8-101.7) | 69.8(46.4-105.2) | very good anti-bronchospastic activity | four to six
CCCC[C@H](C)[C@H](O)/C=C/[C@H]1[C@H](O)CC(=O)[C@@H]1C/C=C\CCCC(=O)O [16S-methyl-PGE2, reference compound] | – | – | – | 0.0112 | 13.5 (7.9-23.7) | 0.0242 | 0.0177 | 39.0(18.9-80.3) | 12.8(9.0-17.9) | – | –
CCCCC[C@H](O)/C=C/[C@H]1[C@H](O)CC(=O)[C@@H]1C/C=C\CCCC(=O)O [PGE2, reference compound] | – | – | – | 0.155 | – | 0.717 | 0.119 | – | – | – | –
